In US20250179055A1, “Substituted 2-(pyrrolidine-3-yl)acetic acid derivative, preparation method and use thereof” (INNOVSTONE THERAPEUTICS LIMITED, priority 2023, published 2025):

How the values were obtained:
[1] = target: Lp(a) assembly in HepG2 cells overexpressing ApoA protein (Homo sapiens (Human), UniProt P08519); experiment: ELISA assay on screening Lp(a) assembly inhibition; assay type: cell-based; settings: HepG2 cells overexpressing ApoA protein, 24 h, ELISA of supernatant
How it was run: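 HepG2 cells overexpressing ApoA treated with diluted compounds for 24 h at 37 °C, 5% CO2; EACA (10 μL of 1.5 M) added before harvesting supernatant. Secreted Lp(a) quantified by sandwich ELISA; IC50 from four-parameter Hill fit of % inhibition versus concentration.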

serum Lp(a) = experiment: Humanized mouse Lp(a) inhibition test; assay type: in vivo, humanized Lp(a) transgenic mouse; settings: blood 8 h after last dose, humanized Lp(a) mice
Protocol: The in vivo pharmacodynamics of the compounds in reducing Lp(a) was evaluated in a humanized Lp(a) transgenic mouse model. Lp(a) mice were obtained by crossing mice expressing humanized apoB-100 with mice expressing humanized apo(a) containing 16 Kringle repeats. Female mice aged 8-9 weeks were selected for the test. Housing conditions: standard light cycle (12 h light/12 h dark), temperature 20-25° C., humidity 40-70%, free access to water and normal diet. is One day before the test, mice were divided into vehicle control group and test article group (n=5/group) according to body weight and baseline plasma Lp(a) concentration. Mice were orally administered with vehicle (normal saline, 10 mL/kg) or test compound (prepared with normal saline to 3 or 0.5 mg/mL, each mouse received 10 mL/kg), once daily (9:00 am) for 3 consecutive days, and blood was collected to determine the change of serum Lp(a). Eight hours after the last dose, 10 μL of blood was collected from the tail vein and transferred to a 1.5 mL centrifuge tube containing 90 μL of normal saline, mixed well, and left to stand on ice for 30 min. The above samples were centrifuged at 4° C., 3000 rpm for 10 min, and the supernatant was collected and placed on ice. The Lp(a) concentration in the supernatant was measured by double-antibody sandwich ELISA using an anti-apo(a) capture antibody and an HRP-conjugated anti-ApoB detection antibody, with TMB for color development. The reaction was stopped with 1 N sulfuric acid, and the OD value was read at 450 nm on a Tecan microplate reader. Inhibition rate was calculated for each dosing group. Inhibition rate (%)=(vehicle control group Lp(a) concentration or self pre-dose Lp(a) concentration post-dose Lp(a) concentration)/vehicle control group Lp(a) concentration or self pre-dose Lp(a) concentration*100.

[2] = 5 mg/kg oral once daily for 3 days

Chain of Lp(a) assembly in HepG2 cells overexpressing ApoA protein (P08519 20-2040): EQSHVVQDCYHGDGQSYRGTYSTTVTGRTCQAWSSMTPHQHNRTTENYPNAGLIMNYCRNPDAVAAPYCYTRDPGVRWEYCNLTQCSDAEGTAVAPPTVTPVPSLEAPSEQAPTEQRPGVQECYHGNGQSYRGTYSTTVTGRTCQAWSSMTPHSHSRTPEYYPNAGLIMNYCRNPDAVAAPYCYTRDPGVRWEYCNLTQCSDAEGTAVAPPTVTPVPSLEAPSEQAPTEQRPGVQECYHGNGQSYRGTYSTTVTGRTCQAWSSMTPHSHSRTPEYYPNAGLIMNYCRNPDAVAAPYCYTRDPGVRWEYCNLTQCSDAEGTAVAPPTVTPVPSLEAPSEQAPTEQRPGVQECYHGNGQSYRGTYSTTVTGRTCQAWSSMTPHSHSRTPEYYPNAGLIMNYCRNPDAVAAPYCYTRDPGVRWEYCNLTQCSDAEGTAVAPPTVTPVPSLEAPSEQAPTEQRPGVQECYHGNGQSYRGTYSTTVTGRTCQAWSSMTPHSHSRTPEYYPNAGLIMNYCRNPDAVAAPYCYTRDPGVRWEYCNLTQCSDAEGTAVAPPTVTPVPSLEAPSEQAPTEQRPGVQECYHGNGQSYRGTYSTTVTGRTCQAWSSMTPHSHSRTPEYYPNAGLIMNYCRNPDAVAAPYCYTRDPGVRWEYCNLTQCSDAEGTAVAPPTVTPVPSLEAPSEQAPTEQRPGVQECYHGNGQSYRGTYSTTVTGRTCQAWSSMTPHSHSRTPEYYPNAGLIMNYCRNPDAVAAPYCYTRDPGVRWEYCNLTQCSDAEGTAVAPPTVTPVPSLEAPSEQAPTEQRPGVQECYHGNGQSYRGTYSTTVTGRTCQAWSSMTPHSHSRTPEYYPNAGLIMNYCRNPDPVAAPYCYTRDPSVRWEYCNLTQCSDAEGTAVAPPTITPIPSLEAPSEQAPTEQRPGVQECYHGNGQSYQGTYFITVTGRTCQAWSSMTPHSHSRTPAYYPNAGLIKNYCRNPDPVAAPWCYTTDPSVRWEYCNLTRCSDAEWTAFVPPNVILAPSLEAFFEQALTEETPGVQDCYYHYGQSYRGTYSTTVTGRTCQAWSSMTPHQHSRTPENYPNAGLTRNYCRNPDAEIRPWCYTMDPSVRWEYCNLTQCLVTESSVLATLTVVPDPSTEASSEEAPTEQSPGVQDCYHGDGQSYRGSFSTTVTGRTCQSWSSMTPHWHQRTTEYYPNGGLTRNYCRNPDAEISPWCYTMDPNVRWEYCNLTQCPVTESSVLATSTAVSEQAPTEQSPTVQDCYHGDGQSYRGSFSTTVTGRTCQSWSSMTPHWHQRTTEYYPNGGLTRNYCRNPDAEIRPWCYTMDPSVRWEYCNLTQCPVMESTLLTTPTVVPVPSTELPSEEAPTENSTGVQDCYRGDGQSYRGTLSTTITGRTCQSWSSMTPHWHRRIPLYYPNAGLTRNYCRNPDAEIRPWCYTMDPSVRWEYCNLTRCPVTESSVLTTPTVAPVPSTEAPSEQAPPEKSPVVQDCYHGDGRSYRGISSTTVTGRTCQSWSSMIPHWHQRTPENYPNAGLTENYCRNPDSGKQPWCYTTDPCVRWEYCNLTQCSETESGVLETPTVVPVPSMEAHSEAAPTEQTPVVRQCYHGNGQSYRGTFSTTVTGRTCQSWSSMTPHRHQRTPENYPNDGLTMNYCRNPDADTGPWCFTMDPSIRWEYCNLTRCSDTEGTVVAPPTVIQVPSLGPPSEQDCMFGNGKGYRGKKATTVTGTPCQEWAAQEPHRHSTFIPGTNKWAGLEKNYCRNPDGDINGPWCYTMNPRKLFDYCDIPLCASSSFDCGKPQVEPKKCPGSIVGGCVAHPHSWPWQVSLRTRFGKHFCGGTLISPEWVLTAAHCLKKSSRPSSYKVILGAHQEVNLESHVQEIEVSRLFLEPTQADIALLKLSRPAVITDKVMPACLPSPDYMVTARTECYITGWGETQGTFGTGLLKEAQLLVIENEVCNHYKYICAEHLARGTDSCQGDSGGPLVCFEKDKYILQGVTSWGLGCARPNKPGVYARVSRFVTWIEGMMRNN

| Structure (SMILES) | IC50 [1] [nM] | Lp(a) Inhibition Rate (serum Lp(a); 30 mg/kg oral once daily for 3 days) [%] | Lp(a) Inhibition Rate (serum Lp(a); [2]) [%] |
| --- | --- | --- | --- |
| O=C(O)[C@@H](Cc1cccc(CN(Cc2cccc(C[C@H](C(=O)O)[C@H]3CCNC3)c2)C(=O)COc2cccc(C[C@H](C(=O)O)[C@H]3CCNC3)c2)c1)[C@H]1CCNC1 [Compound 95, (2S,2′S)-3,3′-((((2-(3-((S)-2-carboxy-2-((R)-pyrrolidin-3-yl)ethyl)phenoxy)acetyl)azanediyl)bis(methylene))bis(3,1-phenylene))bis(2-((R)-pyrrolidin-3-yl)propanoic acid)] | 0.68 | 95 |  |
| O=C(O)[C@@H](Cc1cccc(CCN(CCOc2cccc(C[C@H](C(=O)O)[C@H]3CCNC3)c2)C(=O)Cc2cccc(C[C@H](C(=O)O)[C@H]3CCNC3)c2)c1)[C@H]1CCNC1 [Compound 100, (S)-3-(3-(2-((3-((S)-2-carboxy-2-((R)-pyrrolidin-3-yl)ethyl)phenethyl)(2-(3-((S)-2-carboxy-2-((R)-pyrrolidin-3-yl)ethyl)phenoxy)ethyl)amino)-2-oxoethyl)phenyl)-2-((R)-pyrrolidin-3-yl)propanoic acid] | 1.12 |  | 86 |
| O=C(O)[C@@H](Cc1cccc(CC(=O)N(CCOc2cccc(C[C@H](C(=O)O)[C@H]3CCNC3)c2)CCOc2cccc(C[C@H](C(=O)O)[C@H]3CCNC3)c2)c1)[C@H]1CCNC1 [Compound 111, (2S,2′S)-3,3′-(((((2-(3-((S)-2-carboxy-2-((R)-pyrrolidin-3-yl)ethyl)phenyl)acetyl)azanediyl)bis(ethane-2,1-diyl))bis(oxy))bis(3,1-phenylene))bis(2-((R)-pyrrolidin-3-yl)propanoic acid)] | 1.02 |  | 92 |
| O=C(O)[C@@H](Cc1cccc(OCCN(CCOc2cccc(C[C@H](C(=O)O)[C@H]3CCNC3)c2)C(=O)COc2cccc(C[C@H](C(=O)O)[C@H]3CCNC3)c2)c1)[C@H]1CCNC1 [Compound 113, (2S,2′S)-3,3′-(((((2-(3-((S)-2-carboxy-2-((R)-pyrrolidin-3-yl)ethyl)phenoxy)acetyl)azanediyl)bis(ethane-2,1-diyl))bis(oxy))bis(3,1-phenylene))bis(2-((R)-pyrrolidin-3-yl)propanoic acid)] | 1.17 |  | 79 |
| O=C(O)[C@@H](Cc1cccc(CN(CCOc2cccc(C[C@H](C(=O)O)[C@H]3CCNC3)c2)C(=O)Sc2cccc(C[C@H](C(=O)O)[C@H]3CCNC3)c2)c1)[C@H]1CCNC1 [Compound 138, (S)-3-(3-(2-((3-((S)-2-carboxy-2-((R)-pyrrolidin-3-yl)ethyl)benzyl)(((3-((S)-2-carboxy-2-((R)-pyrrolidin-3-yl)ethyl)phenyl)thio)carbonyl)amino)ethoxy)phenyl)-2-((R)-pyrrolidin-3-yl)propanoic acid] | 2 |  | 88 |
| O=C(O)[C@@H](Cc1cc(F)cc(CC(=O)N(CCOc2cc(F)cc(C[C@H](C(=O)O)[C@H]3CCNC3)c2)Cc2cc(F)cc(C[C@H](C(=O)O)[C@H]3CCNC3)c2)c1)[C@H]1CCNC1 [Compound 152, (S)-3-(3-(2-((3-((S)-2-carboxy-2-((R)-pyrrolidin-3-yl)ethyl)-5-fluorobenzyl)(2-(3-((S)-2-carboxy-2-((R)-pyrrolidin-3-yl)ethyl)-5-fluorophenoxy)ethyl)amino)-2-oxoethyl)-5-fluorophenyl)-2-((R)-pyrrolidin-3-yl)propanoic acid] | 1.26 |  | 90 |
| O=C(O)[C@@H](Cc1cccc(CCN(CCOCc2cccc(C[C@H](C(=O)O)[C@H]3CCNC3)c2)C(=O)Cc2cccc(C[C@H](C(=O)O)[C@H]3CCNC3)c2)c1)[C@H]1CCNC1 [Compound 161, (S)-3-(3-(2-((2-((3-((S)-2-carboxy-2-((R)-pyrrolidin-3-yl)ethyl)benzyl)oxy)ethyl)(3-((S)-2-carboxy-2-((R)-pyrrolidin-3-yl)ethyl)phenethyl)amino)-2-oxoethyl)phenyl)-2-((R)-pyrrolidin-3-yl)propanoic acid] | 1.89 |  | 83 |
| COc1cc(CC(=O)N(CCOc2cc(C[C@H](C(=O)O)[C@H]3CCNC3)cc(OC)c2)Cc2cc(C[C@H](C(=O)O)[C@H]3CCNC3)cc(OC)c2)cc(C[C@H](C(=O)O)[C@H]2CCNC2)c1 [Compound 176, (S)-3-(3-(2-((3-((S)-2-carboxy-2-((R)-pyrrolidin-3-yl)ethyl)-5-methoxybenzyl)(2-(3-((S)-2-carboxy-2-((R)-pyrrolidin-3-yl)ethyl)-5-methoxyphenoxy)ethyl)amino)-2-oxoethyl)-5-methoxyphenyl)-2-((R)-pyrrolidin-3-yl)propanoic acid] | 1.81 |  | 78 |
| O=C(O)[C@@H](Cc1cccc(CC(=O)N(CCOc2cccc(C[C@H](C(=O)O)[C@H]3CCNC3)c2)Cc2cc(C[C@H](C(=O)O)[C@H]3CCNC3)cs2)c1)[C@H]1CCNC1 [Compound 177, (S)-3-(3-(2-((2-(3-((S)-2-carboxy-2-((R)-pyrrolidin-3-yl)ethyl)phenoxy)ethyl)((4-((S)-2-carboxy-2-((R)-pyrrolidin-3-yl)ethyl)thiophen-2-yl)methyl)amino)-2-oxoethyl)phenyl)-2-((R)-pyrrolidin-3-yl)propanoic acid] | 1.26 |  | 90 |
| O=C(O)[C@@H](Cc1cccc(OCCN(Cc2cc(C[C@H](C(=O)O)[C@H]3CCNC3)cs2)C(=O)Cc2cc(C[C@H](C(=O)O)[C@H]3CCNC3)cs2)c1)[C@H]1CCNC1 [Compound 180, (S)-3-(5-(2-((2-(3-((S)-2-carboxy-2-((R)-pyrrolidin-3-yl)ethyl)phenoxy)ethyl)((4-((S)-2-carboxy-2-((R)-pyrrolidin-3-yl)ethyl)thiophen-2-yl)methyl)amino)-2-oxoethyl)thiophen-3-yl)-2-((R)-pyrrolidin-3-yl)propanoic acid] |  |  | 80 |
| [2H]C([2H])(c1cccc(CC(=O)N(CCOc2cccc(C([2H])([2H])[C@H](C(=O)O)[C@H]3CCNC3)c2)Cc2cccc(C([2H])([2H])[C@H](C(=O)O)[C@H]3CCNC3)c2)c1)[C@H](C(=O)O)[C@H]1CCNC1 [Compound 190, (S)-3-(3-(2-((3-((S)-2-carboxy-2-((R)-pyrrolidin-3-yl)ethyl-1,1-d2)benzyl)(2-(3-((S)-2-carboxy-2-((R)-pyrrolidin-3-yl)ethyl-1,1-d2)phenoxy)ethyl)amino)-2-oxoethyl)phenyl)-2-((R)-pyrrolidin-3-yl)propanoic-3,3-d2 acid] |  |  | 83 |
| [2H]C([2H])(c1cccc(C[C@H](C(=O)O)[C@H]2CCNC2)c1)N(CCOc1cccc(C[C@H](C(=O)O)[C@H]2CCNC2)c1)C(=O)Cc1cccc(C[C@H](C(=O)O)[C@H]2CCNC2)c1 [Compound 193, (S)-3-(3-(2-((2-(3-((S)-2-carboxy-2-((R)-pyrrolidin-3-yl)ethyl)phenoxy)ethyl)((3-((S)-2-carboxy-2-((R)-pyrrolidin-3-yl)ethyl)phenyl)methyl-d2)amino)-2-oxoethyl)phenyl)-2-((R)-pyrrolidin-3-yl)propanoic acid] |  |  | 88 |
